Data set [1] addresses T1, T2R4 (Homo sapiens, UniProt Q9NYW5).
T1 sequence (Q9NYW5 1-299): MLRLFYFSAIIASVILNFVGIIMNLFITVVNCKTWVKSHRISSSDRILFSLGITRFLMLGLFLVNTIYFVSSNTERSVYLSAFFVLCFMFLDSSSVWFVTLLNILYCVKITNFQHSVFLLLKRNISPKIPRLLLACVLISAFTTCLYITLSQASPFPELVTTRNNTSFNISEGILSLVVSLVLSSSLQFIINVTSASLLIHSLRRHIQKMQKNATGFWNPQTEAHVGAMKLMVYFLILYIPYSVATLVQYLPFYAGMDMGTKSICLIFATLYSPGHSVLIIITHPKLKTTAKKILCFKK
The conditions noted are these: cited from earlier work.

The nature of data set [2]: Solubility in calcium assay buffer. To be noted: 1X HBSS, 20 mM HEPES. The class given is physicochemical. The text has this:
The cell-culture medium was composed of Dulbecco’s modified Eagle’s medium-F12 (Gibco, Life technologies, Carlsbad, CA, USA) supplemented with 10% heat-inactivated fetal bovine serum (Sigma, Burlington, MA, USA) and 1% penicillin-streptomycin (Gibco, Life technologies). We used hygromycin (Sigma Aldrich, Oakville, ON, Canada) in the selection medium to generate stable cells. All bitter compounds (quinine hydrochloride, diphenhydramine or DPH, and cromolyn) were purchased from Sigma Aldrich (Oakville, ON, Canada). We purchased glyoxal-derived lysine dimer (GOLD) and Nε-Carboxymethyl-L-lysine (CML) from PolyPeptide Laboratories (Strasbourg, France). All the compounds were freshly prepared using calcium assay buffer (1X HBSS, 20 mM HEPES) on the day of the experiment. Calcium sensitive dye Fluo-4 NW kit was purchased from Life technologies (Carlsbad, CA USA).

Data set [3] addresses T2, T2R20 (Homo sapiens, UniProt P59543).
T2 sequence (P59543 1-309): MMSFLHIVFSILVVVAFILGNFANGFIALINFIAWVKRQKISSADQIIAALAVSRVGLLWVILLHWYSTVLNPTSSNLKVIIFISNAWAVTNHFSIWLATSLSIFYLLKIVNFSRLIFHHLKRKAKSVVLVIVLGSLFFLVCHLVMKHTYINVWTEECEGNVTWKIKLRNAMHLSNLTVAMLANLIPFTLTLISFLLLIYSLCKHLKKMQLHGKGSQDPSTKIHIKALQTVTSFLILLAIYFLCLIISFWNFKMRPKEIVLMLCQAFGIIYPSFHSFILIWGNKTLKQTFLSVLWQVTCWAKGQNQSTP
The experiment in a line: Calcium mobilization assay, HEK293T cells stably expressing T2R20. The class given is cell-based. To be noted: for Activation of T2R20 by compound alone: 100 μM; for EC50: 3–200 μM, ± standard deviation, read-out: EC50, activation of T2R20 calcium mobilization. An excerpt:
(§1) Human Embryonic Kidney (HEK293T) cell line was purchased from ATCC (Manassas, VA, USA). N-terminal FLAG epitope tagged human TAS2R4, TAS2R14, and TAS2R20 genes were codon-optimized for expression in mammalian cells and cloned into the KpnI-NotI site of pcDNA 3.1/Hygro (+) expression vector, and they were commercially synthesized (GenScript Inc., Piscataway, MA, USA) as previously described in Reference. We generated stable HEK293T cells expressing the above T2Rs in the selection medium containing 200 μg/mL hygromycin as described previously in References.
(§2) Calcium mobilization assays on each T2R expressing stable cells were performed by incubation with Fluo-4 NW dye containing probenecid (2.5 mM) for 35 min at 37 °C, followed by 35 min at room temperature. We then treated the cells either with the putative agonist alone or in combination with the AGE compound. To elucidate the action of AGEs on T2Rs, the cells were initially treated with a fixed concentration (100 μM). To determine IC50 for AGE compounds, the agonist concentration was kept constant whilst the AGE compound was added in a concentration dependent manner (3 μM to 200 μM). To determine EC50 for the agonists, we used a concentration range from 3 μM to 200 μM. The Flexstation-3 automated fluorescence microplate reader (Molecular devices) was used to measure the calcium at 525 nm emission, followed by excitation at 494 nm. ΔRFU (relative fluorescence units) were calculated by the system based on the difference between the maximum response and minimum response. We used HEK293T cells as the control for baseline subtraction. The data were collected from at least three independent experiments performed in triplicates and analyzed using GraphPad Prism V. 6.0 (GraphPadSoftware, La Jolla, CA, USA).
In general terms: Calcium flux is commonly read through the fluorescence of an indicator in the cells.

For data set [4], the target named is T1, T2R4. Briefly: Calcium mobilization assay, HEK293T cells stably expressing T2R4. The class given is cell-based. The conditions noted are these: for Calcium mobilization by compound alone, T2R4 cells: 100 μM, compared to basal; for IC50: 3–200 μM AGE with quinine 1 mM, ± standard deviation, read-out: IC50, inhibition of quinine-activated T2R4 calcium mobilization.
Source text: as §1, §2

The target in data set [5] is T3, T2R14 (Homo sapiens, UniProt Q9NYV8).
T3 sequence (Q9NYV8 1-317): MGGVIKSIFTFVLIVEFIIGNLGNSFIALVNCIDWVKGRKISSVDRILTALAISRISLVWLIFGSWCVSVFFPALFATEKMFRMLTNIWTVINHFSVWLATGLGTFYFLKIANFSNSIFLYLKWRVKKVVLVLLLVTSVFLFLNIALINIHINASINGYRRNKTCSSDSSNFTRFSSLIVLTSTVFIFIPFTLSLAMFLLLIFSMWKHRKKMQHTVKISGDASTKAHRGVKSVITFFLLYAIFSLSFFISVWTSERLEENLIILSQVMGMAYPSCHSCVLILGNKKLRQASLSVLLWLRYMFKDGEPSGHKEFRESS
Briefly: Calcium mobilization assay, HEK293T cells stably expressing T2R14. To be noted: for Calcium response by compound alone, T2R14 cells: 100 μM; for Inhibition of DPH-activated T2R14 calcium mobilization: 3–200 μM AGE with DPH 500 μM. The format is cell-based.
Source text: as §1, §2

The values that follow come from PMC6628017, “Advanced Glycation End-Products Can Activate or Block Bitter Taste Receptors” (Nutrients, 2019).

“Also recorded” adds a separate entry of the source. Where a name gives a salt, the structure may show the parent alone. Read-outs that look alike come from different tables or passages of the source.

As a reminder, the EC50 is the midpoint of the concentration-response curve. As to `C=C[C@H]1C[N@@]2CC[C@H]1C[C@H]2[C@H](O)c1ccnc2ccc(OC)cc12` [quinine, quinine hydrochloride], the EC50 in data set [1] (agonist) was 1000 µM.

Regarding Pentosidine, the “Solubility in calcium assay buffer” value in data set [2] is “insoluble or only slightly soluble”.

For orientation: IC50 means the midpoint of a concentration-inhibition curve. As for `NCCCC[C@@H](C(=O)O)N(CC(=O)O)CC(=O)O` [BCML, Nα, Nα-bis(carboxymethyl)-L-lysine], the IC50 in data set [1] (read-out: IC50 against quinine, T2R4 antagonist) is 0.06 µM.

Take `NC(CCCCn1cc[n+](CCCCC(N)C(=O)O)c1)C(=O)O` (centres unmarked) [GOLD, glyoxal-derived lysine dimer]: in data set [3], the “Activation of T2R20 by compound alone” value was “activated T2R20” and the EC50 was 79.3 ± 29.2 µM. Further, in data set [4], the “Calcium mobilization by compound alone, T2R4 cells” value is on record as “did not cause a significant increase in calcium mobilization” and the IC50 stood at 10.5 ± 4.7 µM. In data set [5], the “Calcium response by compound alone, T2R14 cells” value is on record as “did not show any calcium response” and the “Inhibition of DPH-activated T2R14 calcium mobilization” value is listed as “did not generate a reverse sigmoid curve to determine the IC50 value; also recorded: no dose-dependent inhibition observed”.

As to `N[C@@H](CCCCNCC(=O)O)C(=O)O` [CML, Nε-Carboxymethyl-L-lysine], in data set [3], the “Activation of T2R20 by compound alone” value is reported as “activated T2R20” and the EC50 came out at 65.3 ± 17.8 µM. Also, in data set [4], the “Calcium mobilization by compound alone, T2R4 cells” value is listed as “did not cause a significant increase in calcium mobilization” and the half-maximal inhibitory concentration (IC50) came out at 32.6 ± 9.5 µM. In addition, in data set [5], the “Calcium response by compound alone, T2R14 cells” value is “did not show any calcium response” and the “Inhibition of DPH-activated T2R14 calcium mobilization” value was “no significant effect in suppressing the DPH activation of T2R14”.

For `CC(NCCCC[C@H](N)C(=O)O)C(=O)O` (some centres unmarked) [Nε-Carboxyethyl Lysine (CEL), Nε-Carboxyethyl Lysine], the “Solubility in calcium assay buffer” value in data set [2] was “insoluble or only slightly soluble”.

For `O=C(O)c1cc(=O)c2c(OCC(O)COc3cccc4oc(C(=O)O)cc(=O)c34)cccc2o1` [cromolyn, reference compound], the EC50 in data set [3] came out at 50.7 ± 15.1 µM.
